Data published in US7282512B2, “Cycloalkyl ketoamides derivatives useful as cathepsin K inhibitors” (SmithKline Beecham Corporation, priority 2002, dated 2007).
Read-outs that look alike come from different tables or passages of the source.

Tests used:
human cathepsin K = target: T1, human cathepsin K (Homo sapiens, UniProt P43235); assay: cathepsin K inhibition assay, fluorogenic substrate Cbz-Phe-Arg-AMC, progress curve method; assay type: biochemical; settings: human recombinant enzyme, 10 μM substrate
T1 construct: The proform of cathepsin K was converted to mature cathepsin K by brief exposure to pH 4; made in house; host or cells: baculovirus; Trichoplusia ni High Five cells (virus raised in Sf-9)
T1 sequence (P43235 115-329): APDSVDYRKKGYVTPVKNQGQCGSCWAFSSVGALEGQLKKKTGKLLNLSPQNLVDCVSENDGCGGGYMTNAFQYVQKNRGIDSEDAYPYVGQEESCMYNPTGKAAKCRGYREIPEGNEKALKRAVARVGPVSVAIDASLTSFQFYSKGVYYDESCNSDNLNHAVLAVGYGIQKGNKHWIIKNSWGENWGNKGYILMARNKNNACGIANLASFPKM
Experimental: All assays for cathepsin K were carried out with human and rat recombinant enzyme. Assays for cathepsins S & V were also carried out with human recombinant enzyme. Assays for human cathepsins B, H, and L were carried out with enzyme, purchased from Athens Research and Technology, Inc., prepared from human liver tissue. […] A stock substrate solution of Cbz-Phe-Arg-AMC was prepared at a concentration of 50 mM in dimethyl sulfoxide. This substrate was diluted into the assay for a final substrate concentration of 10 μM in the rat cathepsin K, human cathepsin K, and human cathepsin B assays; a final substrate concentration of 5 μM in the human cathepsin L assay; and a final substrate concentration of 2 μM in the human cathepsin V assay.
All assays contained 10% dimethyl sulfoxide. […] All assays were conducted at 30° C. Product fluorescence (excitation at 360 nm; emission at 440 nm, (except cathepsin H which used excitation at 340 nm; emission at 420 nm)) was monitored with a PerSeptive Biosystems Cytofluor II fluorescence plate reader. Product progress curves were generated over 2.3 h monitoring the formation of 7-amino-4-methylcoumarin product (or β-naphthalamide for cathepsin H).
Two liters of Spodoptera frugiperda (Sf-9) cells (ATCC) were grown in Grace's Supplemented medium (Life Technologies) supplemented with 2 g/L glucose, 10% fetal bovine serum (HyClone) and 0.1% pluronic F-68 (Life Technologies). […] The cells continued to grow for 72 h post-infection, before the virus was harvested by centrifugation at 1400×g for 30 min.
One and one-half liters of Trichoplusia ni (T. ni) High Five (™) cells [JRH Biosciences, Woodland, Calif. […] Media were separated from cells at a rate of 1 L/min using the Centritech 100 (™) continuous-flow centrifuge (DuPont) operating at 200×g.
Protein Purification: Media (human and rat) were filtered through a Whatman 3 filter, and then loaded onto a 25 mL Poros HS II (26 mm×47 mm) cation exchange column equilibrated in 25 mM sodium acetate at pH 5.5 (equilibration buffer). The column was washed until the absorbance reached the baseline value, and then the protein was eluted with a linear gradient from 0-2 M sodium chloride in the equilibration buffer. Column fractions were analyzed by SDS-PAGE, N-terminal sequencing, and mass spectrometry. Fractions containing the proform of cathepsin K were pooled and frozen at −80° C. The proform was concentrated in an Amicon Centriprep 10 and fractionated with a Superdex 75 column (26 mm×600 mm, Pharmacia) equilibrated in 400 mM sodium chloride, 25 mM sodium acetate at pH 5.5.
Cathepsin K Activation: The proform of cathepsin K was converted to mature cathepsin K by brief exposure to pH 4 in the presence of 5 mM L-cysteine. Typically, 5 mM L-cysteine was added to 10 mL of approximately 1 mg/mL procathepsin K. One mL of this solution was diluted ten-fold into 450 mM sodium acetate at pH 4.0 containing 5 mM L-cysteine. This solution was reacted at 23° C. for 2 min before neutralization with 2 mL 1.8 M sodium acetate at pH 6.0. The neutralized sample was added to the remaining 9 mL of procathepsin K. The mixture was incubated at 4° C. for 2-3 days. The activated cathepsin K was chromatographed on a Poros HS II column as described above.
Potential inhibitors were evaluated using the progress curve method. Assays were carried out in the presence of variable concentrations of test compound. Reactions were initiated by addition of buffered solutions of inhibitor and substrate to enzyme. Data analysis was conducted according to one of two procedures depending on the appearance of the progress curves in the presence of inhibitors. […] Ki values were calculated from IC50 values using equation 2 assuming a competitive model.

human cathepsin H = human cathepsin H (Homo sapiens, UniProt P09668); assay: cathepsin H inhibition assay, substrate L-Arg-β-naphthalamide; assay type: biochemical; settings: Table 2; enzyme from human liver tissue, 50 μM substrate; read-out: hCat H Ki
human cathepsin H, sequence (P09668 116-335 limits assumed, other chains not shown): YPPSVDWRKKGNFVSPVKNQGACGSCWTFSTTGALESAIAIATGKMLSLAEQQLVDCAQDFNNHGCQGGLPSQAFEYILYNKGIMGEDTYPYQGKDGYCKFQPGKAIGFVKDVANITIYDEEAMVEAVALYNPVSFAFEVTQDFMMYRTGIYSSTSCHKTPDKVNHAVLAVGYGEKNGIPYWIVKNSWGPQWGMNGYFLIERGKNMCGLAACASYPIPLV
Experimental: All assays for cathepsin K were carried out with human and rat recombinant enzyme. Assays for cathepsins S & V were also carried out with human recombinant enzyme. Assays for human cathepsins B, H, and L were carried out with enzyme, purchased from Athens Research and Technology, Inc., prepared from human liver tissue. Standard assay conditions for the determination of kinetic constants used a fluorogenic peptide substrate, typically (5S,8S)-13-amino-5-benzyl-13-imino-3-methylene-N-(4-methyl-2-oxo-2H-chromen-7-yl)-6-oxo-1-phenyl-2-oxa-4,7,12-triazatridecane-8-carboxamide (Cbz-Phe-Arg-AMC), and were determined in 100 mM sodium acetate at pH 5.5 containing 10 mM dithiothreitol and 120 mM sodium chloride. A stock substrate solution of Cbz-Phe-Arg-AMC was prepared at a concentration of 50 mM in dimethyl sulfoxide. This substrate was diluted into the assay for a final substrate concentration of 10 μM in the rat cathepsin K, human cathepsin K, and human cathepsin B assays; a final substrate concentration of 5 μM in the human cathepsin L assay; and a final substrate concentration of 2 μM in the human cathepsin V assay. […]
All assays contained 10% dimethyl sulfoxide. […] Product fluorescence (excitation at 360 nm; emission at 440 nm, (except cathepsin H which used excitation at 340 nm; emission at 420 nm)) was monitored with a PerSeptive Biosystems Cytofluor II fluorescence plate reader. […]
Potential inhibitors were evaluated using the progress curve method. […] For those compounds whose progress curves were linear, the enzymatic activity (RATE) was plotted against the concentration of test compound, including inhibitor concentration of zero ([I]=0), and the IC50 determined from a fit of equation 1 to the data, RATE=Vmax/(1+([I]/IC50)) (1) where Vmax is the best fit estimate of the maximal enzymatic activity. Ki values were calculated from IC50 values using equation 2 assuming a competitive model.

[1] = Table 1, pH 5.5, 30° C., read-out: hcatK Ki

Row | Ki (human cathepsin K; [1]) | Ki (human cathepsin K; Table 2, read-out: hCat K Ki) | Ki (human cathepsin H) | SMILES
1 | 1 to 10 nM | 1 to 10 nM | > 1000 nM | CCCC[C@H](NC(=O)OC1(c2nc3ccccc3s2)CCCC1)C(=O)C(=O)Nc1ccn[nH]1 [Example 17, 1-(1,3-Benzothiazol-2-yl)cyclopentyl(1S)-1-[oxo(1H-pyrazol-3-ylamino)acetyl]pentylcarbamate]
2 | < 1 nM | < 1 nM | 100 to 1000 nM | CCCC[C@H](NC(=O)OCC1(Cc2ccc(F)cc2)CCC1)C(=O)C(=O)Nc1n[nH]c2cc(Cl)ccc12 [Example 15, [1-(4-fluorobenzyl)cyclobutyl]methyl(1S)-1-[[(6-chloro-1H-indazol-3-yl)amino](oxo)acetyl]pentylcarbamate]
3 | 10 to 100 nM | 10 to 100 nM | > 1000 nM | CCCC[C@H](NC(=O)OC1(Cc2ccccc2)CCCC1)C(=O)C(=O)N[C@@H](C)C(=O)OCc1ccccc1 [Example 3, Benzyl (2S)-2-{[(3S)-3-({[(1-benzylcyclopentyl)oxy]carbonyl}amino)-2-oxoheptanoyl]amino}propanoate]
